From patent US9487570B2, “Glucagon like peptide analogs, composition, and method of use” (BETTA PHARMACEUTICALS CO., LTD, priority 2010, dated 2016)

Legend:
[1] = system: cloned human GLP-1 receptor; assay: cAMP formation in a cell line expressing the cloned human GLP-1 receptor; conditions: 2 h at 37 °C, cAMP by scintillation proximity assay; read-out: Cell based cAMP ED50
DPP-IV = DPP-IV (Homo sapiens, UniProt P27487); assay: Stability to DPP-IV in vitro; conditions: isolated DPP-IV enzyme, pH 7.4
Chain of DPP-IV (P27487 whole entry, species assumed): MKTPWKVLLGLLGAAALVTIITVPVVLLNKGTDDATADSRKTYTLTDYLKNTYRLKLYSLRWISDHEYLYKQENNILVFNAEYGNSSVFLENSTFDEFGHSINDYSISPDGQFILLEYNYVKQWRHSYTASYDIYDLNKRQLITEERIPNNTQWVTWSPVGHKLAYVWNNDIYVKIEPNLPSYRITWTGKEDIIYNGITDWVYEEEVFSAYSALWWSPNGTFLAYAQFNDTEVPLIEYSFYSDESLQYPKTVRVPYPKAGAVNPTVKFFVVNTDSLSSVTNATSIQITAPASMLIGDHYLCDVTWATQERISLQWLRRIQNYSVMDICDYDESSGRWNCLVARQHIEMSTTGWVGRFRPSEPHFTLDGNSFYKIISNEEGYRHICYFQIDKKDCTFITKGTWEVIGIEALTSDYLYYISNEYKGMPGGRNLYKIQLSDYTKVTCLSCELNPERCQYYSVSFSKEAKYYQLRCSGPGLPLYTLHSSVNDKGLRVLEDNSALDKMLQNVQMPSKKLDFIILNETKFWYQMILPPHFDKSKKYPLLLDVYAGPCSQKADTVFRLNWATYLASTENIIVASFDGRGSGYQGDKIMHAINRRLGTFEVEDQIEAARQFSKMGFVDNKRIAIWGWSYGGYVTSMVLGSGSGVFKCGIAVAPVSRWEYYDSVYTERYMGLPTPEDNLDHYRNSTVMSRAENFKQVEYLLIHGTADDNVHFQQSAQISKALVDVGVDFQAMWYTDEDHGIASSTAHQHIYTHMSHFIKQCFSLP
Method: DPP-IV (5 mU, 900 μL) was added, and the solutions were incubated at 37 ° C. At the indicated time points, 100 μL was removed from the reaction mixture, and reactions were terminated by the addition of 5 μL of 10% (v/v) TFA. Each sample was analyzed by MALDI-TOF MS and RP-HPLC as described.

[2] = from U.S. Pat. No. 5,118,666; cited from earlier work

Compound | EC50 [1] [nM] | remaining at 1 h, 0.5 nmol/L (DPP-IV) [%] | remaining at 24 h, 0.5 nmol/L (DPP-IV) [%] | biological half-life [2] [minutes]
CC[C@H](C)[C@H](NC(=O)[C@H](Cc1ccccc1)NC(=O)[C@H](CCC(=O)O)NC(=O)[C@H](CCCCN)NC(=O)[C@H](C)NC(=O)[C@H](C)NC(=O)[C@H](CCC(N)=O)NC(=O)CNC(=O)[C@H](CCC(=O)O)NC(=O)[C@H](CC(C)C)NC(=O)[C@H](Cc1ccc(O)cc1)NC(=O)[C@H](CO)NC(=O)[C@H](CO)NC(=O)[C@@H](NC(=O)[C@H](CC(=O)O)NC(=O)[C@H](CO)NC(=O)[C@@H](NC(=O)[C@H](Cc1ccccc1)NC(=O)[C@@H](NC(=O)CNC(=O)[C@H](CCC(=O)O)NC(=O)[C@H](C)NC(=O)[C@@H](N)Cc1c[nH]cn1)[C@@H](C)O)[C@@H](C)O)C(C)C)C(=O)N[C@@H](C)C(=O)N[C@@H](Cc1c[nH]c2ccccc12)C(=O)N[C@@H](CC(C)C)C(=O)N[C@H](C(=O)N[C@@H](CCCCN)C(=O)NCC(=O)N[C@@H](CCCNC(=N)N)C(N)=O)C(C)C [GLP-1, reference compound] | 0.06 | – | – | –
CCCCCCCCCCCCCCCC(=O)N[C@@H](CCC(=O)NCCCC[C@H](NC(=O)[C@H](C)NC(=O)[C@H](C)NC(=O)[C@H](CCC(N)=O)NC(=O)CNC(=O)[C@H](CCC(=O)O)NC(=O)[C@H](CC(C)C)NC(=O)[C@H](Cc1ccc(O)cc1)NC(=O)[C@H](CO)NC(=O)[C@H](CO)NC(=O)[C@@H](NC(=O)[C@H](CC(=O)O)NC(=O)[C@H](CO)NC(=O)[C@@H](NC(=O)[C@H](Cc1ccccc1)NC(=O)[C@@H](NC(=O)CNC(=O)[C@@H](/C=C/[C@H](C)NC(=O)[C@@H](N)Cc1c[nH]cn1)CCC(=O)O)[C@@H](C)O)[C@@H](C)O)C(C)C)C(=O)N[C@@H](CCC(=O)O)C(=O)N[C@@H](Cc1ccccc1)C(=O)N[C@H](C(=O)N[C@@H](C)C(=O)N[C@@H](Cc1c[nH]c2ccccc12)C(=O)N[C@@H](CC(C)C)C(=O)N[C@H](C(=O)N[C@@H](CCCNC(=N)N)C(=O)NCC(=O)N[C@@H](CCCNC(=N)N)C(=O)NCC(=O)O)C(C)C)[C@@H](C)CC)C(=O)O [N-ε^26-[γ-L-glutamyl(N-α-hexadecanoyl)]-[Q-linker-a8-9,Arg34]GLP-1-(7-37)-peptide] | – | 98 | 98 | –
CCCCCCCCCCCCCCCC(=O)N[C@@H](CCC(=O)NCCCC[C@H](NC(=O)[C@H](C)NC(=O)[C@H](C)NC(=O)[C@H](CCC(N)=O)NC(=O)CNC(=O)[C@H](CCC(=O)O)NC(=O)[C@H](CC(C)C)NC(=O)[C@H](Cc1ccc(O)cc1)NC(=O)[C@H](CO)NC(=O)[C@H](CO)NC(=O)[C@@H](NC(=O)[C@H](CC(=O)O)NC(=O)[C@H](CO)NC(=O)[C@@H](NC(=O)[C@H](Cc1ccccc1)NC(=O)[C@@H](NC(=O)CNC(=O)[C@H](CCC(=O)O)N[C@@H]([C@H](C)NC(=O)[C@@H](N)Cc1c[nH]cn1)C(F)(F)F)[C@@H](C)O)[C@@H](C)O)C(C)C)C(=O)N[C@@H](CCC(=O)O)C(=O)N[C@@H](Cc1ccccc1)C(=O)N[C@H](C(=O)N[C@@H](C)C(=O)N[C@@H](Cc1c[nH]c2ccccc12)C(=O)N[C@@H](CC(C)C)C(=O)N[C@H](C(=O)N[C@@H](CCCNC(=N)N)C(=O)NCC(=O)N[C@@H](CCCNC(=N)N)C(=O)NCC(=O)O)C(C)C)[C@@H](C)CC)C(=O)O [N-ε^26-[γ-L-glutamyl(N-α-hexadecanoyl)]-[Q-linker-d8,Arg34]GLP-1-(7-37)-peptide] | – | 98 | 98 | –
GLP-1(7-37)OH | – | – | – | 3 to 5
